# Results: US20120148857A1, “Treated wood and methods of treatment” (priority 2010, published 2012)
# Read-outs that look alike come from different tables or passages of the source.
# Key:
# [1] = Description: Knowing the molecular weight of the product, it was possible to calculate how many moles of water were hydrated. It was thus possible to calculate the molar content of a saturated solution of the particular zinc salt, and thus to determine if is was sufficiently soluble at a low but possible processing temperature for an unheated preservative-treatment facility. […] Ten grams of the clear solution was dried overnight in a 70 C oven. […] Water has a molecular weight of 18.
# The anhydrous foamed salt was crushed and added back to the solution, as crystallization seeding.
# The washed precipitates were dried to constant weight in a 70 C oven.
# [2] = pH measurement of aqueous solutions with ion-sensitive FET pH meter; format: physicochemical; settings: water
# Excerpt: Time was allowed for the pH reading to equilibrate after each addition. This typically took ten to thirty seconds, and increased noticeably with further additions. An Ion-Sensitive FET pH meter was used. The meter was calibrated before and after each measurement series with pH 7.0 buffer solution, and the readings corrected for any meter drift observed. The pH measurements were graphed.
# Five milliliters of a solution of pH 4.1 contains about 10^−4 moles H^+ per liter times 5/1000=5×10^−7 moles H^+. Fifteen mL of a solution of pH 7.5 contains 15/1000×10^−75 moles of H^+, or about 10^−9.3 moles H^+. Twenty milliliters of a solution of pH 6.9 contains 20/1000×10^−6.9 moles of H+, or about 10^−8.7 moles of H+.
# [3] = from the CRC listed solubility
# Excerpt: Following is a listing of candidate zinc salts with the properties found in the CRC handbook, 65th edition, and their stated solubilities at various temperatures, and molecular weights. The Name in each case is followed by CRC listed solubilities at stated temperatures, Molecular weight, and Molarity of saturated solution.
# [4] = pH test of impregnating solution with Hydrion test paper; settings: 0.2 molar solution
# Excerpt: It was then allowed to float in a 0.2 molar sodium metaborate solution, absorbing it by capillary wicking. After six hours the upper surface was damp.
compound,measurement,setting,value
O=C([O-])c1ccccc1.O=C([O-])c1ccccc1.[Zn+2] [Zinc benzoate],Molarity of saturated solution,[1],mol/L 0.0117
"zinc borate [zinc borate furnished by City Chemical, reference compound]",pH of a saturated solution,[2],6.7
O.O.O.O.O.O.O.O.O=S(=O)([O-])c1ccc(O)cc1.O=S(=O)([O-])c1ccc(O)cc1.[Zn+2] [Zinc phenol-sulfonate octahydrate],Molarity of saturated solution,[3],mol/L 1.12
Zinc sorbate,Solubility in words,[1],so little solubility even in hot water
O=B[O-].[Na+] [sodium metaborate],pH of solution by Hydrion test paper,[4],10-11 pH
O=C([O-])CC(O)C(=O)[O-].[Zn+2] (stereo not drawn) [Zinc malate],Molarity of saturated solution,[1],mol/L 0.071
same,Molarity of the saturated solution,[1],0.133 M
same,Solubility (laboratory measurement),[1],Zinc malate 1.4 g/100 ml@16 C.
Zinc mandelate,Molarity of saturated solution,[1]; from the laboratory solubility (10-16 C),mol/L 0.010
same,Solubility (laboratory measurement),"[1]; water, 14 C",Zinc mandelate 0.38 g/100 ml@14 C.
(ZnO) (B2O3)2,pH of a saturated solution,[2],6.7
Zinc Valerate dihydrate,Molarity of saturated solution,[3],mol/L 0.085
